The results in this text go back to PubChem BioAssay (NCI).

Each structure is given as a SMILES string. “And” between values parts separate entries of the source, which are not always exact repeats. Equal values may be shown once.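 In this assay, cells in 96-well plates receive the compound at five concentrations for 48 hours. Endpoints are linearly interpolated between the surrounding concentrations. GI50: concentration for 50% inhibition of growth. TGI: concentration producing complete growth inhibition.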 Some results are limits rather than exact numbers.

The first test relates to COLO 205 colon. In words: NCI anticancer screen, dose series, 48 h.
As to `O=[N+]([O-])O.[Cu+2].[NH-]CC[NH-].[NH-]CC[NH-]`, the GI50 is greater than 10 µM and the TGI is greater than 10 µM.
`Cc1nn2c(/C=C3\C(=O)Nc4ccc(Cl)cc43)c(C)nc2s1`: the GI50 was 13.3 µM and the TGI was greater than 100 µM.
In the same order, the values of `COc1ccc(C(=O)OC2C(OC3C(O)COC(O[C@H]4C[C@H]5[C@@H]6CC=C7C[C@@H](O)CC[C@]7(C)[C@H]6CC[C@]5(C)[C@H]4[C@H](C)C(=O)CCC(C)C)C3OC(N)=O)OCC(O)C2O)cc1` (stereo partly drawn) are 0.072 µM and 0.507 µM.
As for `c1ccc2[nH]c(-c3ccc(-c4nccc5c4[nH]c4ccccc45)cc3)nc2c1`, the GI50 was 2.32 µM and the TGI was 6.22 µM.
The matching figures for `COC(=O)c1nc(-c2ccccc2)oc1S(=O)(=O)Cc1ccccc1`: 1.84 µM and 3.66 µM.
As for `CN(O)c1nc(N(C)O)nc(N2CCOCC2)n1`, the GI50 is 3.69 µM and the TGI was greater than 100 µM.
The matching figures for `COc1ccc(-c2c[nH]c(C(=O)O)c2-c2cc(OC)c(OC)c(OC)c2)cc1`: 3.31 µM and 17 µM.
`C#Cc1c(F)ccc2cc(O)cc(-c3ncc4c(N5CC6CCC(C5)N6)nc(OC[C@@]56CCCN5C[C@H](F)C6)nc4c3F)c12`: the GI50 was 16.1 µM and the TGI turned out to be 45.1 µM.
`C=C(C)C(=O)Nc1ccc(NC(C)C)cc1`: the GI50 is greater than 100 µM and the TGI is greater than 100 µM.
With `C=C(C)C(=O)O[C@H]1CC(=C)[C@@H]2C[C@H](O)[C@](O)(CCl)[C@@H]2[C@H]2OC(=O)C(=C)[C@@H]21`, the GI50 is 1.87 µM and the TGI was 3.66 µM.
Consider `CCC1C2Cc3ccc(O)cc3C1(CC)CCN2C` (stereo not drawn), for which the TGI is greater than 100 µM.
As to `COc1cnc2c(c1)C(=O)c1c-2n(CCCn2ccnc2)c(=O)c2cc(F)ccc12`, the GI50 is 0.0228 µM and the TGI was determined as 0.297 µM.
In the case of `CC1CCC(NC(=O)N(CCCl)N=O)CC1` (stereo not drawn), the GI50 was 23.1 µM; the TGI was 43.3 µM and 60.2 µM.
As for `CC(C)[C@H](N)C(=O)N1CCC[C@H]1B(O)O`, the GI50 was greater than 100 µM and the TGI is greater than 100 µM.
On to `COc1ccc2cc(C(=O)/C=C/c3ccc(Cl)cc3Cl)ccc2c1`, for which the GI50 is 20.3 µM and the TGI came to 55.7 µM.

For a further test, the system named is HOP-92 NSCLC. In words: NCI anticancer screen, dose series, 48 h.
Turning to `O=[N+]([O-])O.[Cu+2].[NH-]CC[NH-].[NH-]CC[NH-]`, the GI50 was greater than 10 µM and the TGI is greater than 10 µM.
Turning to `Cc1nn2c(/C=C3\C(=O)Nc4ccc(Cl)cc43)c(C)nc2s1`, the GI50 is greater than 100 µM and the TGI was greater than 100 µM.
`COc1ccc(C(=O)OC2C(OC3C(O)COC(O[C@H]4C[C@H]5[C@@H]6CC=C7C[C@@H](O)CC[C@]7(C)[C@H]6CC[C@]5(C)[C@H]4[C@H](C)C(=O)CCC(C)C)C3OC(N)=O)OCC(O)C2O)cc1` (stereo partly drawn): the GI50 is 0.0686 µM and the TGI amounted to 1.2 µM.
In the same order, the values of `c1ccc2[nH]c(-c3ccc(-c4nccc5c4[nH]c4ccccc45)cc3)nc2c1` are 2.06 µM and 5.79 µM.
As to `COC(=O)c1nc(-c2ccccc2)oc1S(=O)(=O)Cc1ccccc1`, the GI50 was 1.61 µM and the TGI was determined as 3.12 µM.
As to `CN(O)c1nc(N(C)O)nc(N2CCOCC2)n1`, the GI50 is 8.77 µM and the TGI was greater than 100 µM.
The matching figures for `COc1ccc(-c2c[nH]c(C(=O)O)c2-c2cc(OC)c(OC)c(OC)c2)cc1`: 5.68 µM and greater than 100 µM.
The matching figures for `C#Cc1c(F)ccc2cc(O)cc(-c3ncc4c(N5CC6CCC(C5)N6)nc(OC[C@@]56CCCN5C[C@H](F)C6)nc4c3F)c12`: 4.01 µM and 16.5 µM.
The matching figures for `C=C(C)C(=O)Nc1ccc(NC(C)C)cc1`: greater than 100 µM and greater than 100 µM.
Regarding `C=C(C)C(=O)O[C@H]1CC(=C)[C@@H]2C[C@H](O)[C@](O)(CCl)[C@@H]2[C@H]2OC(=O)C(=C)[C@@H]21`, the GI50 is 2.69 µM and the TGI was 6.33 µM.
`CCC1C2Cc3ccc(O)cc3C1(CC)CCN2C` (stereo not drawn) displayed a TGI greater than 100 µM.
For `COc1cnc2c(c1)C(=O)c1c-2n(CCCn2ccnc2)c(=O)c2cc(F)ccc12`, the GI50 was 0.154 µM and the TGI came to 3.11 µM.
As to `CC1CCC(NC(=O)N(CCCl)N=O)CC1` (stereo not drawn), the TGI is 64.2 µM and 68.8 µM.
For the compound `CC(C)[C@H](N)C(=O)N1CCC[C@H]1B(O)O`, the GI50 was greater than 100 µM and the TGI was greater than 100 µM.
`COc1ccc2cc(C(=O)/C=C/c3ccc(Cl)cc3Cl)ccc2c1`: the GI50 was greater than 100 µM and the TGI was greater than 100 µM.

The subject of a further test is NCI-H522 lung. In words: NCI anticancer screen, dose series, 48 h.
For the compound `O=[N+]([O-])O.[Cu+2].[NH-]CC[NH-].[NH-]CC[NH-]`, the GI50 was greater than 10 µM and the TGI is greater than 10 µM.
Take `Cc1nn2c(/C=C3\C(=O)Nc4ccc(Cl)cc43)c(C)nc2s1`: the GI50 was 6 µM and the TGI stood at 39 µM.
On to `COc1ccc(C(=O)OC2C(OC3C(O)COC(O[C@H]4C[C@H]5[C@@H]6CC=C7C[C@@H](O)CC[C@]7(C)[C@H]6CC[C@]5(C)[C@H]4[C@H](C)C(=O)CCC(C)C)C3OC(N)=O)OCC(O)C2O)cc1` (stereo partly drawn), for which the GI50 was 0.0658 µM and the TGI stood at 0.485 µM.
As for `c1ccc2[nH]c(-c3ccc(-c4nccc5c4[nH]c4ccccc45)cc3)nc2c1`, the GI50 is 2.06 µM and the TGI was 5.04 µM.
For the compound `COC(=O)c1nc(-c2ccccc2)oc1S(=O)(=O)Cc1ccccc1`, the GI50 is 1.52 µM and the TGI was found to be 3.29 µM.
The matching figures for `CN(O)c1nc(N(C)O)nc(N2CCOCC2)n1`: 4.03 µM and greater than 100 µM.
On to `COc1ccc(-c2c[nH]c(C(=O)O)c2-c2cc(OC)c(OC)c(OC)c2)cc1`, for which the GI50 was 2.75 µM and the TGI was greater than 100 µM.
On to `C#Cc1c(F)ccc2cc(O)cc(-c3ncc4c(N5CC6CCC(C5)N6)nc(OC[C@@]56CCCN5C[C@H](F)C6)nc4c3F)c12`, for which the GI50 is 14.5 µM and the TGI worked out at 31.3 µM.
The matching figures for `C=C(C)C(=O)Nc1ccc(NC(C)C)cc1`: greater than 100 µM and greater than 100 µM.
Take `C=C(C)C(=O)O[C@H]1CC(=C)[C@@H]2C[C@H](O)[C@](O)(CCl)[C@@H]2[C@H]2OC(=O)C(=C)[C@@H]21`: the GI50 was 1.91 µM and the TGI turned out to be 4 µM.
Take `CCC1C2Cc3ccc(O)cc3C1(CC)CCN2C` (stereo not drawn): the TGI was greater than 100 µM.
As to `COc1cnc2c(c1)C(=O)c1c-2n(CCCn2ccnc2)c(=O)c2cc(F)ccc12`, the GI50 is less than 0.01 µM and the TGI was 0.169 µM.
For the compound `CC1CCC(NC(=O)N(CCCl)N=O)CC1` (stereo not drawn), the GI50 was 14.1 µM; the TGI is 31.6 µM and 90 µM.
With `CC(C)[C@H](N)C(=O)N1CCC[C@H]1B(O)O`, the GI50 is greater than 100 µM and the TGI is greater than 100 µM.
In the case of `COc1ccc2cc(C(=O)/C=C/c3ccc(Cl)cc3Cl)ccc2c1`, the GI50 was 32.8 µM and the TGI was 85.5 µM.

In a further test the test system is M14 melanoma. In words: NCI anticancer screen, dose series, 48 h.
Take `O=[N+]([O-])O.[Cu+2].[NH-]CC[NH-].[NH-]CC[NH-]`: the GI50 was greater than 10 µM and the TGI is greater than 10 µM.
`Cc1nn2c(/C=C3\C(=O)Nc4ccc(Cl)cc43)c(C)nc2s1`: the GI50 is 23.2 µM and the TGI is greater than 100 µM.
In the same order, the values of `COc1ccc(C(=O)OC2C(OC3C(O)COC(O[C@H]4C[C@H]5[C@@H]6CC=C7C[C@@H](O)CC[C@]7(C)[C@H]6CC[C@]5(C)[C@H]4[C@H](C)C(=O)CCC(C)C)C3OC(N)=O)OCC(O)C2O)cc1` (stereo partly drawn) are 0.036 µM and 0.183 µM.
In the case of `c1ccc2[nH]c(-c3ccc(-c4nccc5c4[nH]c4ccccc45)cc3)nc2c1`, the GI50 is 1.79 µM and the TGI was 3.57 µM.
Take `COC(=O)c1nc(-c2ccccc2)oc1S(=O)(=O)Cc1ccccc1`: the GI50 is 3.87 µM and the TGI was found to be 16.3 µM.
With `CN(O)c1nc(N(C)O)nc(N2CCOCC2)n1`, the GI50 was 2.92 µM and the TGI is 57 µM.
For `COc1ccc(-c2c[nH]c(C(=O)O)c2-c2cc(OC)c(OC)c(OC)c2)cc1`, the GI50 is 3.65 µM and the TGI is greater than 100 µM.
For the compound `C#Cc1c(F)ccc2cc(O)cc(-c3ncc4c(N5CC6CCC(C5)N6)nc(OC[C@@]56CCCN5C[C@H](F)C6)nc4c3F)c12`, the GI50 is 14 µM and the TGI came to 29.6 µM.
As to `C=C(C)C(=O)Nc1ccc(NC(C)C)cc1`, the GI50 is greater than 100 µM and the TGI is greater than 100 µM.
For `C=C(C)C(=O)O[C@H]1CC(=C)[C@@H]2C[C@H](O)[C@](O)(CCl)[C@@H]2[C@H]2OC(=O)C(=C)[C@@H]21`, the GI50 was 2.78 µM and the TGI turned out to be 6.88 µM.
Turning to `CCC1C2Cc3ccc(O)cc3C1(CC)CCN2C` (stereo not drawn), the TGI was greater than 100 µM.
Consider `COc1cnc2c(c1)C(=O)c1c-2n(CCCn2ccnc2)c(=O)c2cc(F)ccc12`, for which the GI50 was less than 0.01 µM and the TGI was 0.635 µM.
For `CC1CCC(NC(=O)N(CCCl)N=O)CC1` (stereo not drawn), the GI50 was 14.3 µM; the TGI was 30.5 µM and 66.5 µM.
Regarding `CC(C)[C@H](N)C(=O)N1CCC[C@H]1B(O)O`, the GI50 was greater than 100 µM and the TGI is greater than 100 µM.
Regarding `COc1ccc2cc(C(=O)/C=C/c3ccc(Cl)cc3Cl)ccc2c1`, the GI50 is 8.75 µM and the TGI was 28 µM.

The subject of the next test is BT-549 breast. In words: NCI anticancer screen, dose series, 48 h.
Turning to `O=[N+]([O-])O.[Cu+2].[NH-]CC[NH-].[NH-]CC[NH-]`, the GI50 was greater than 10 µM and the TGI is greater than 10 µM.
Regarding `Cc1nn2c(/C=C3\C(=O)Nc4ccc(Cl)cc43)c(C)nc2s1`, the GI50 is 63.2 µM and the TGI is greater than 100 µM.
The matching figures for `COc1ccc(C(=O)OC2C(OC3C(O)COC(O[C@H]4C[C@H]5[C@@H]6CC=C7C[C@@H](O)CC[C@]7(C)[C@H]6CC[C@]5(C)[C@H]4[C@H](C)C(=O)CCC(C)C)C3OC(N)=O)OCC(O)C2O)cc1` (stereo partly drawn): less than 0.003 µM and 3.71 µM.
With `c1ccc2[nH]c(-c3ccc(-c4nccc5c4[nH]c4ccccc45)cc3)nc2c1`, the GI50 is 2.12 µM and the TGI is 5.42 µM.
Consider `COC(=O)c1nc(-c2ccccc2)oc1S(=O)(=O)Cc1ccccc1`, for which the GI50 was 6.5 µM and the TGI turned out to be 19.1 µM.
Regarding `CN(O)c1nc(N(C)O)nc(N2CCOCC2)n1`, the GI50 was 5.34 µM and the TGI was greater than 100 µM.
The matching figures for `COc1ccc(-c2c[nH]c(C(=O)O)c2-c2cc(OC)c(OC)c(OC)c2)cc1`: 10.4 µM and greater than 100 µM.
As to `C#Cc1c(F)ccc2cc(O)cc(-c3ncc4c(N5CC6CCC(C5)N6)nc(OC[C@@]56CCCN5C[C@H](F)C6)nc4c3F)c12`, the GI50 was 8.22 µM and the TGI is 22.8 µM.
As for `C=C(C)C(=O)Nc1ccc(NC(C)C)cc1`, the GI50 was greater than 100 µM and the TGI was greater than 100 µM.
Regarding `C=C(C)C(=O)O[C@H]1CC(=C)[C@@H]2C[C@H](O)[C@](O)(CCl)[C@@H]2[C@H]2OC(=O)C(=C)[C@@H]21`, the GI50 is 1.84 µM and the TGI is 3.45 µM.
As for `CCC1C2Cc3ccc(O)cc3C1(CC)CCN2C` (stereo not drawn), the TGI is greater than 100 µM.
Take `COc1cnc2c(c1)C(=O)c1c-2n(CCCn2ccnc2)c(=O)c2cc(F)ccc12`: the GI50 was 0.0688 µM and the TGI came out at 2.86 µM.
`CC1CCC(NC(=O)N(CCCl)N=O)CC1` (stereo not drawn): the TGI stood at 57.2 µM.
On to `CC(C)[C@H](N)C(=O)N1CCC[C@H]1B(O)O`, for which the GI50 is greater than 100 µM and the TGI was greater than 100 µM.
In the case of `COc1ccc2cc(C(=O)/C=C/c3ccc(Cl)cc3Cl)ccc2c1`, the GI50 is 0.963 µM and the TGI came out at 4.6 µM.
